Tests used:
ADRβ1 receptors = ADRβ1 receptors (Homo sapiens, UniProt P08588); assay: ADRβ1 receptor antagonist screening (half maximal inhibitory concentration); format: binding
Text: Based on these inventive discoveries, a screening method for determining at least one test agent effective for modifying the appearance of pigmented skin is provided. The method comprises contacting a cell, a cell culture, or bulk cells with the test agent, wherein the cell, the cell culture, or the bulk cells comprise ADRβ1 receptors, and determining based on the binding interaction of the test agent with the ADRβ1 receptors whether the test agent is an effective ADRβ1 receptor antagonist suitable for modifying the appearance of pigmented skin, wherein a test agent is considered to be an effective ADRβ1 receptor antagonist when it defines a half maximal inhibitory concentration of less than about 1000 ppm.
The method further comprises determining whether test agents are effective for improving the appearance of pigmented skin if the test agent is an antagonist of the ADRβ1 receptors. In one embodiment, the test agent may be identified as an ADRβ1 receptor antagonist if the test agent defines a half maximal inhibitory concentration (IC50) of less than about 1000 ppm. In further embodiments, the ADRβ1 receptor antagonist defines a half maximal inhibitory concentration of less than about 100 ppm, or less than about 50 ppm. By utilizing this metric of maximal inhibitory concentration, it is possible to correlate the antagonistic activity of the ADRβ1 receptor antagonists with an ability of the ADRβ1 receptor antagonists to improve the appearance of hyper-pigmented spots in human skin. In further embodiments, when the ADRβ1 receptor antagonists bind to the ADRβ1 receptors, a luminescent reference signal may be generated, which may be measured by a luminometer, a fluorescence plate reader, or a fluorometer.
As shown below in Table 2, the present inventors have further recognized that modifying a test agent from a peptide to a palmitoylated peptide greatly improves its efficacy as an ADRβ1 inhibitor.

B16-F1 cells = assay: B16 cell melanin synthesis assay; format: cell-based, murine; settings: FIG. 4; for effect on melanin synthesis (% MS): increasing concentration (w/v %)
Text: Determining test agents suitable as ADRβ1 antagonists, ADRβ2 antagonists, or combinations thereof may utilize a melanin synthesis assay selected from the group consisting of a B16 cell assay or a skin model. The B16-F1 cells, which are murine melanoma cells obtained from American Tissue Culture Collection (ATCC), contain the synthetic machinery for melanin production and respond to some benchmark whitening/tanning agents. The following experiment depicts one exemplary method of determining the effect of test agents on melanin synthesis. In the experiment, 0.5 mL of B16-F1 cells are added to 29.5 ml of B16-F1 culture media to 2 separate T-150 flasks, and grown to near (˜80% ) confluency. The culture media B16-F1 comprises the following components as shown in Table 1 below: The cells from the T-150 flasks were trypsinized and counted with a hemacytometer. Then, cell vials (1×10^6 cell aliquots) were frozen in a mixture comprising 95% B16-F1 culture medium and 5% DMSO (Dimethyl sulfoxide) and placed in liquid Nitrogen. All cell culture reagents (except trypsin) were heated in a 37° C. water bath. On day zero, 29 mL of B16-F1 culture media was placed into a T-150 flask at 37° C. Then, a vial of the frozen cells was obtained, thawed in a 37° C. water bath, and placed in the T-150 flask. The flask was agitated to mix the cells with the media, and then the flask was incubated for 3 days at 37° C. in a humidified environment comprising 5% CO2. On day 3, the cells from the flask were trypsinized and the cell density was determined. At which point, the cells were split into a 96-well plate with 2,500 cells per well. At day 5, the cells were treated with the test agents. On day 7, the cells were assayed for melanin production and toxicity. […] As stated above, ADRβ1 and ADRβ2 stimulation result in elevated cAMP levels which drive tyrosinase production in known melanogenesis pathways.

human skin explants = assay: Pigmentation gene expression in human skin explants; format: cell-based; settings: compared with Stem Cell Factor & Endothelin (Endo-SCF), FIG. 5
Text: FIG. 5 is a graphical illustration depicting the effect of dobutamine on human skin explants.
As stated above, ADRβ1 and ADRβ2 stimulation result in elevated cAMP levels which drive tyrosinase production in known melanogenesis pathways.

Sequence of ADRβ1 receptors (P08588 whole entry): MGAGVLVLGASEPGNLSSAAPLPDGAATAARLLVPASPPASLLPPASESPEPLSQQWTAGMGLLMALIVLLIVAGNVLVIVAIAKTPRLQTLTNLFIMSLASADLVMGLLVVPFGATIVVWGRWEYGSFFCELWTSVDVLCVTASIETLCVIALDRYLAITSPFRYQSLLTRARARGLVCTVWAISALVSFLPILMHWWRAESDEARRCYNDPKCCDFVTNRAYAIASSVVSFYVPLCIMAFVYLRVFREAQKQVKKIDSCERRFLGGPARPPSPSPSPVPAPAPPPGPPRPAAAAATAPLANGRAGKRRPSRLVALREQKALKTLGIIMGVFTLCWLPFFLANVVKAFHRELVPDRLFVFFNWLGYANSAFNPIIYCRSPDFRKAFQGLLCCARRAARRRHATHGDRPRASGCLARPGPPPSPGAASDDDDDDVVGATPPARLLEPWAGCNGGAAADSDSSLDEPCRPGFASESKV

AcetylGHK
ADRβ1 IC 50 (ppm) (ADRβ1 receptors): 45 ppm

AcetylGQPR [acetyl-modified GQPR peptide]
ADRβ1 IC 50 (ppm) (ADRβ1 receptors): 45 ppm

CC(CCc1ccc(O)cc1)NCCc1ccc(O)c(O)c1 (stereo not shown) [dobutamine]
effect on melanin synthesis (% MS) (B16-F1 cells): increases the melanin synthesis | pigmentation gene expression (human skin explants): induces pigmentation gene expression in human skin explants more than the paracrine factors

palGHK
ADRβ1 IC 50 (ppm) (ADRβ1 receptors): 3.3 ppm

CC(C)NCC(O)c1ccc(O)c(O)c1 (stereo not shown) [isoprenaline]
melanin synthesis (% MS) (B16-F1 cells; as the concentration of isoprenaline increased): ~300% | effect on melanin synthesis (% MS) (B16-F1 cells): increases the melanin synthesis

GQPR
ADRβ1 IC 50 (ppm) (ADRβ1 receptors): 1200 ppm

GHK
ADRβ1 IC 50 (ppm) (ADRβ1 receptors): 1100 ppm

palGQPR [palmitoylated GQPR peptide]
ADRβ1 IC 50 (ppm) (ADRβ1 receptors): 0.23 ppm

Reference: patent publication US10267796B2, “Screening methods of modulating adrenergic receptor gene expressions implicated in melanogenesis” (The Procter & Gamble Company, priority 2010, dated 2019)
